Tests used:
[1] = Competitive slurry experiments of polymorphic forms; format: physicochemical; details: competitive slurry of Form 1 with Form 2 and Form 3 in acetonitrile at room temperature (20-25° C.) and 75° C.
Source text: Three anhydrous polymorphic forms of telmapitant or (5R,8S)-8-[[(1R)-1-[3,5-bis(trifluoromethyl)phenyl]ethoxy]methyl]-8-phenyl-1,3,7-triazaspiro[4.5]decane-2,4-dione (MK-7035) have been identified during polymorph screening.

[2] = test system: emesis induced by apomorphine IV and syrup of ipecac orally; details: dogs; centrally acting emetogens (apomorphine IV) and peripherally acting emetogens (syrup of ipecac orally); cited from earlier work

Structure (SMILES)	relative thermodynamic stability of polymorphic forms [1]	efficacy against emetogens [2]
C[C@@H](OC[C@@]1(c2ccccc2)CC[C@]2(CN1)NC(=O)NC2=O)c1cc(C(F)(F)F)cc(C(F)(F)F)c1 [Form 1, (5R,8S)-8-[[(1R)-1-[3,5-bis(trifluoromethyl)phenyl]ethoxy]methyl]-8-phenyl-1,3,7-triazaspiro[4.5]decane-2,4-dione]	thermodynamically more stable than Form 2 and Form 3	
COc1ccc(C(C)(C)C)cc1CN[C@H]1C2CCN(CC2)[C@H]1C(c1ccccc1)c1ccccc1 [maropitant]		effective
